Consider 9 compounds from US11793880B2, “Conjugates of quaternized tubulysin compounds” (Seagen Inc., priority 2015, dated 2023).

In one data set the test system is U266 MM. Briefly: In vitro assays - TubOEt analogues, CellTiter-Glo growth inhibition. It is filed as cell-based. As to conditions: Homo sapiens, U-266; Table 3; lantern-made analogues >85% purity, 96 hour exposure. The method, then:
(§1) In vitro assays. Cells cultured in log-phase growth were seeded for 24 h in 96-well plates containing 150 μL RPMI 1640 supplemented with 20% FBS. Serial dilutions of antibody-drug conjugates in cell culture media were prepared at 4× working concentrations; 50 μL of each dilution was added to the 96-well plates. Following addition of ADC, cells were incubated with test articles for 4 d at 37° C. After 96 h, growth inhibition was assessed by CellTiter-Glo® (Promega, Madison, WI) and luminescence was measured on a plate reader. The IC50 value, determined in triplicate, is defined here as the concentration that results in a 50% reduction in cell growth relative to untreated controls.
(§2) A series of analogues of the ethyl ether tubulysin compound TubOEt (41) were synthesized on solid phase lanterns that maintain the ethyl ether substitution, while either varying the residue at the Ile position (203-215) or the Mep position (216-221). Following cleavage from the solid phase, the analogues were obtained in >85% purity and tested without further purification. The compounds were tested in vitro for potency relative to a sample of TubOEt synthesized in parallel on a lantern (41-lantern), following a 96 hour exposure, with IC5O values expressed in nM (Table 3). While in many cases an attenuation in activity was observed relative to 41-lantern, some well-tolerated substitutions were found. […] While this stereochemical preference is not observed when Ile is replaced with O-methyl threonine (207) or O-methyl allothreonine (206), bulkier substituents led to a greater differentiation. […] Replacement of the Mep residue was generally less-well tolerated.

Another data set relates to Ramos, NHL. The data set is described as above. It is filed as cell-based. To be noted: Homo sapiens, Table 3, lantern-made analogues >85% purity, 96 hour exposure. The method, then:
as §1, §2

A further data set has as its system HepG2, HCC. Described as above. Type of data set: cell-based. To be noted: Homo sapiens, Table 3, lantern-made analogues >85% purity, 96 hour exposure. The method, then:
as §1, §2

A further data set deals with HL60, AML. The data set is described as follows: In vitro assays - tubulysin free drugs, CellTiter-Glo growth inhibition. Type of data set: cell-based. Here is the method:
as §1
(§3) In vitro assays—tubulysin free drugs. Cells were treated for 96 hours with tubulysin ether analogs (40-42) or tubulysin M (7), then assessed for viability as described in the methods.
(§4) The tubulysin ester analogs (133-137) and unsaturated ether analogs (176-179) were tested in vitro for potency relative to tubulysin M (7), following a 96 hour exposure. As shown by IC50 values (nM) of Table 2, Tubulysin esters 133-136 performed comparably to tubulysin M, with similar potencies across of the cell lines.
as §2

Data set [1] has as its system L540cy, HL. The data set is described as above. Type of data set: cell-based. Here is the method:
as §1, §3, §4, §2

A further data set relates to HL60/RV, MDR + AML. Described as above. It is filed as cell-based. Here is the method: as §1, §3, §4, §2
Data set [2] relates to HepG2, L540cy, Ramos, U266, HL60, HL60/RV cell lines. Briefly: In vitro assays - TubOEt analogues, statements across the cell line panel. It is filed as cell-based. To be noted: Table 3 cell lines, 96 hour exposure. Here is the method: as §1, §2
A further data set deals with Karpas299, ALCL. Briefly: In vitro assays - tubulysin free drugs, CellTiter-Glo growth inhibition. Type of data set: cell-based. As to conditions: free drug. Here is the method: as §1, §3, §4
Data set [3] concerns L428, MDR + HL. The data set is described as above. Type of data set: cell-based. To be noted: free drug. The method, then: as §1, §3, §4
In a further data set the test system is DEL/BVR, MDR + ALCL. To be noted: Table 4; cAC10 ADCs DAR 8, 96 h. Here is the method: (§5) In vitro assays. Cells cultured in log-phase growth were seeded for 24 h in 96-well plates containing 150 μL RPMI 1640 supplemented with 20% FBS. Serial dilutions of antibody-drug conjugates in cell culture media were prepared at 4× working concentrations; 50 μL of each dilution was added to the 96-well plates. […] After 96 h, growth inhibition was assessed by CellTiter-Glo® (Promega, Madison, WI) and luminescence was measured on a plate reader.
(§6) In vitro assays—tubulysin ADCs. ADCs were prepared by t Ell reduction of interchain disulfides to reveal 8-conjugatable cysteines/antibody that were alkylated through Michael addition with the maleimide-containing Drug Linker compounds. […] conjugates hearing quaternized tubulysin ethers with and without a PEG12 side-chain were compared to their tubulysin M analogs.
(§7) Several hydrophilic linker constructs incorporating quaternized tubulysin M were prepared and evaluated in vitro; the results are shown in Table 5. The data (IC50 values in ng/mL) indicate that Conjugates prepared from Drug Linker compounds having quaternized tubulysin M linked via a hydrophilic ValGlu dipeptide with (95) or without (91) a PEG12 side chain, or linked via a hydrophilic glucuronide (82) provide ADCs that are equipotent to the ValAla comparator (15).

Data set [4] concerns L540cy, HL. To be noted: Table 4; cAC10 ADCs DAR 8, 96 h. The method, then:
as §5, §6, §7

Data set [5] has as its system L428, MDR + HL. As to conditions: Table 4; cAC10 ADCs DAR 8, 96 h. Here is the method: as §5, §6, §7
Setting [6] is: Homo sapiens, HL-60, 96 h, Table 3, lantern-made analogues >85% purity, 96 hour exposure.
[7] abbreviates: L540cy, 96 h, Table 3, lantern-made analogues >85% purity, 96 hour exposure.
[8] abbreviates: Homo sapiens, HL-60, 96 h, Table 2, free drug, 96 hour exposure.
Setting [9] is: L540cy, 96 h, Table 2, free drug, 96 hour exposure.
Where [10] appears, read: Homo sapiens, KARPAS-299, 96 h, Table 2, 96 hour exposure.
Setting [11] is: Homo sapiens, L-428, 96 h, Table 2, 96 hour exposure.
Where [12] appears, read: Homo sapiens, HL-60, 96 h, Table 1 (examples), free drug, 96 hours.
The mark [13] stands for this setting: Table 1 (examples), free drug, 96 hours.

As to `CCO[C@H](C[C@H](C(C)C)N(C)C(=O)[C@@H](NC(=O)C12CC(CCN1C)C2)[C@@H](C)CC)c1nc(C(=O)N[C@@H](Cc2ccccc2)C[C@H](C)C(=O)O)cs1` [Compound 217, (2S,4R)-4-(2-((1R,3R)-3-((2S,3S)—N,3-dimethyl-2-(2-methyl-2-azabicyclo[3.1.1]heptane-1-carboxamido)pentanamido)-1-ethoxy-4-methylpentyl)thiazole-4-carboxamido)-2-methyl-5-phenylpentanoic acid], the IC50 with U266 MM was determined as 0.4 nM; in the data set on Ramos, NHL it was 0.4 nM; with HepG2, HCC, 2 nM; in the data set with HL60, AML (setting [6]) it was 4 nM; in the data set on L540cy, HL [1] (setting [7]), 1 nM; in the data set on HL60/RV, MDR + AML (setting [6]) it was 244 nM. For the same compound, the “potency / cytotoxicity of TubOEt analogues, in words” value in data set [2] was “most potent compounds obtained in this series”.

For the compound `CCO[C@H](C[C@H](C(C)C)N(C)C(=O)[C@@H](NC(=O)[C@H]1CCCCN1C)[C@@H](C)OC(C)(C)C)c1nc(C(=O)N[C@@H](Cc2ccccc2)C[C@H](C)C(=O)O)cs1` [Compound 215, (2S,4R)-4-(2-((1R,3R)-3-((2S,3R)-3-(tert-butoxy)-N-methyl-2-((R)-1-methylpiperidine-2-carboxamido)butanamido)-1-ethoxy-4-methylpentyl)thiazole-4-carboxamido)-2-methyl-5-phenylpentanoic acid], the IC50 in the data set with U266 MM worked out at 0.1 nM; with Ramos, NHL, 0.2 nM; with HepG2, HCC, 1 nM; with HL60, AML (setting [6]), 1 nM; in the data set on L540cy, HL [1] (setting [7]), 0.2 nM; with HL60/RV, MDR + AML (setting [6]), 33 nM. In data set [2], the “potency / cytotoxicity of TubOEt analogues, in words” value is listed as “significantly more potent”.

`CCC(=O)O[C@H](C[C@H](C(C)C)N(C)C(=O)[C@@H](NC(=O)[C@H]1CCCCN1C)[C@@H](C)CC)c1nc(C(=O)N[C@@H](Cc2ccccc2)C[C@H](C)C(=O)O)cs1` [Compound 133, (2S,4R)-4-(2-((1R,3R)-3-((2S,3S)—N,3-dimethyl-2-((R)-1-methylpiperidine-2-carboxamido)pentanamido)-4-methyl-1-(propionyloxy)pentyl)thiazole-4-carboxamido)-2-methyl-5-phenylpentanoic acid]: the IC50 came out at 0.1 nM with HL60, AML (setting [8]); 0.06 nM in the data set on L540cy, HL [1] (setting [9]); 1 nM with HL60/RV, MDR + AML (setting [8]); 0.02 nM in the data set on Karpas299, ALCL (setting [10]); 0.04 nM with L428, MDR + HL [3] (setting [11]).

For the compound `CC[C@H](C)[C@H](NC(=O)[C@H]1CCCCN1C)C(=O)N(C)[C@H](C[C@@H](OC(C)=O)c1nc(C(=O)N[C@@H](Cc2ccccc2)C[C@H](C)C(=O)O)cs1)C(C)C` [Compound 7, tubulysin M, reference compound], the IC50 in the data set with HL60, AML (setting [12]) is 0.3 nM; in the data set on HL60, AML (setting [8]) it was 0.15 nM; in the data set with L540cy, HL [1] (L540cy, 96 h, Table 1 (examples), free drug) it was 0.14 nM; with L540cy, HL [1] (setting [9]), 0.08 nM; with HL60/RV, MDR + AML (setting [12]), 2.2 nM; in the data set with HL60/RV, MDR + AML (setting [8]), 1 nM. Further, the IC50 in the data set with Karpas299, ALCL (Homo sapiens, KARPAS-299, 96 h, Table 1 (examples), 96 hours) came to 0.17 nM; in the data set with Karpas299, ALCL (setting [10]), 0.04 nM; in the data set on L428, MDR + HL [3] (Homo sapiens, L-428, 96 h, Table 1 (examples), 96 hours), 0.11 nM; in the data set with L428, MDR + HL [3] (setting [11]), 0.04 nM.

As to `CC[C@H](C)[C@H](NC(=O)[C@H]1CCCCN1C)C(=O)N(C)[C@H](C[C@@H](OC(=O)C(C)C)c1nc(C(=O)N[C@@H](Cc2ccccc2)C[C@H](C)C(=O)O)cs1)C(C)C` [Compound 135, (2S,4R)-4-(2-((1R,3R)-3-((2S,3S)—N,3-dimethyl-2-((R)-1-methylpiperidine-2-carboxamido)pentanamido)-1-(isobutyryloxy)-4-methylpentyl)thiazole-4-carboxamido)-2-methyl-5-phenylpentanoic acid], the IC50 in the data set with HL60, AML (setting [8]) was 0.1 nM; with L540cy, HL [1] (setting [9]) it was 0.1 nM; with HL60/RV, MDR + AML (setting [8]), 6 nM; with Karpas299, ALCL (setting [10]), 0.02 nM; with L428, MDR + HL [3] (setting [11]), 0.12 nM.

Turning to `CC[C@H](C)[C@H](NC(=O)[C@H]1CCCCN1C)C(=O)N(C)[C@H](C[C@@H](OC(=O)CC(C)C)c1nc(C(=O)N[C@@H](Cc2ccccc2)C[C@H](C)C(=O)O)cs1)C(C)C` [Compound 136, (2S,4R)-4-(2-((1R,3R)-3-((2S,3S)—N,3-dimethyl-2-((R)-1-methylpiperidine-2-carboxamido)pentanamido)-4-methyl-1-((3-methylbutanoyl)oxy)pentyl)thiazole-4-carboxamido)-2-methyl-5-phenylpentanoic acid], the IC50 in the data set with HL60, AML (setting [8]) stood at 0.04 nM; with L540cy, HL [1] (setting [9]), 0.06 nM; in the data set with HL60/RV, MDR + AML (setting [8]), 6 nM; with Karpas299, ALCL (setting [10]) it was 0.02 nM; with L428, MDR + HL [3] (setting [11]), 0.11 nM.

For `CCCO[C@H](C[C@H](C(C)C)N(C)C(=O)[C@@H](NC(=O)[C@H]1CCCC[N+]1(C)Cc1ccc(O[C@@H]2O[C@H](C(=O)O)[C@@H](O)[C@H](O)[C@H]2O)c(NC(=O)CCNC(=O)[C@H](CN)N2C(=O)C=CC2=O)c1)[C@@H](C)CC)c1nc(C(=O)N[C@@H](Cc2ccccc2)C[C@H](C)C(=O)O)cs1` (stereo partly shown) [Compound 58], in the data set with DEL/BVR, MDR + ALCL, the “IC50, DEL/BVR, MDR + ALCL” value turned out to be 0.01 µg/mL. For the same compound, the “IC50, L540cy, HL” value in the data set with L540cy, HL [4] was found to be 0.006 µg/mL. In addition, in the data set with L428, MDR + HL [5], the “IC50, L428, MDR + HL” value turned out to be 0.117 µg/mL.

Take `CCCO[C@H](C[C@H](C(C)C)N(C)C(=O)[C@@H](NC(=O)[C@H]1CCCCN1C)[C@@H](C)CC)c1nc(C(=O)N[C@@H](Cc2ccccc2)C[C@H](C)C(=O)O)cs1` [Compound 42, (2S,4R)-4-(2-((1R,3R)-3-((2S,3S)—N,3-dimethyl-2-((R)-1-methylpiperidine-2-carboxamido)pentanamido)-4-methyl-1-propoxypentyl)thiazole-4-carboxamido)-2-methyl-5-phenylpentanoic add]: the IC50 turned out to be 0.17 nM in the data set on HL60, AML (setting [13]); 0.13 nM with L540cy, HL [1] (setting [13]); 14 nM in the data set with HL60/RV, MDR + AML (setting [13]); 0.15 nM with Karpas299, ALCL (Table 1 (examples), 96 hours); 0.4 nM with L428, MDR + HL [3] (Table 1 (examples), 96 hours).

On to `CCCC(=O)O[C@H](C[C@H](C(C)C)N(C)C(=O)[C@@H](NC(=O)[C@H]1CCCCN1C)[C@@H](C)CC)c1nc(C(=O)N[C@@H](Cc2ccccc2)C[C@H](C)C(=O)O)cs1` [Compound 134, (2S,4R)-4-(2-((1R,3R)-1-(butyryloxy)-3-((2S,3S)—N,3-dimethyl-2-((R)-1-methylpiperidine-2-carboxamido)pentanamido)-4-methylpentyl)thiazole-4-carboxamido)-2-methyl-5-phenylpentanoic acid], for which the IC50 in the data set with HL60, AML (setting [8]) was 0.08 nM; in the data set on L540cy, HL [1] (setting [9]), 0.04 nM; in the data set on HL60/RV, MDR + AML (setting [8]), 3 nM; with Karpas299, ALCL (setting [10]), 0.011 nM; in the data set on L428, MDR + HL [3] (setting [11]), 0.05 nM.
